This note sets out measurements from US10463745B2, “Materials for tissue regeneration” (Northwestern University, priority 2015, dated 2019).

Groups on a side chain read outwards from the residue. No end group written: not given here. BMPH = maleimide-and-hydrazide crosslinker; PPCN hydrogel = not defined here

The test system of data set [1] is human dermal fibroblasts and human epithelial keratinocytes. The experiment in a line: Self-assembled monolayer (SAM) cell adhesion assay. In kind it is cell-based. As to conditions: HDFs and HEKas. As to the method: Cysteine-terminated peptides were synthesized manually on Fmoc-Rink amide MHBA resin using a standard solid phase peptide synthesis protocol. They were purified using reverse-phase HPLC with a C18 column, and the final products were characterized by matrix-assisted laser desorption/ionization time of flight mass spectrometry (MALDI-TOF MS). Self-assembled monolayer cell adhesion assay was performed (ref 56; incorporated by reference in its entirety). Maleimide-terminated alkanethiol was self-assembled on the gold surfaces to form the well-organized monolayer. Known amount of characterized Cysteine-terminated peptides were dissolve in 0.1% trifluoroacetic acid solution and incubate with the surface to allow peptide absorption on the surface via thiol-maleimide reaction. The resulting surfaces were characterized by MALDI-TOF MS for peptide adsorption before being used for HDFs and HEKas adhesion studies. The adherent cells were counted 2 hours after the initial seeding. […]
The synthesized peptides were immobilized onto SAM chips by incubating the chips with 100 μM peptide solution in PBS at room temperature for 1 hr. […] Peptide chips were then mounted with Vectashield+DAPI and imaged on a Nikon Eclipse TE2000-U inverted fluorescence microscope. The number of cells per field of view was counted using ImageJ software. […]

The subject of the next data set is Human dermal fibroblasts. The data set is described as follows: In vitro 3D cell culture, live/dead stain, confocal imaging of cell spreading. Format: cell-based. As to conditions: HDFs. How it is done: Cell culture medium (KGM-Gold for HEKa, DMEM+10% FBS for HDF) was then added to each well, and cells were cultured at 37° C. and 5% CO2. After 5 or 10 days, the gels were washed twice with warm 1×PBS, and stained with live/dead stain (2 uM calcein AM and 2 uM ethidium homodimer-1) at 37° C. for 15 min. The samples were then washed twice with warm 1×PBS and imaged on a Nikon C2 Confocal microscope.

Data set [2] deals with HDFs. The data set is described as follows: Cell cycle analysis by flow cytometry with propidium iodide. Format: cell-based, human. As to conditions: HDFs in gel. How it is done:
A flow cytometric analysis, with propidium iodide (PI), was performed in order to measure the cell cycle activity. At each time point, cell encapsulated scaffolds were liquefied, and the cells were extracted via centrifuging. The cells were then washed with ice-cold PBS, and fixed with 70% ice-cold ethanol for 1 h before repeated washing with PBS and re-suspension in PBS with 0.5 mg/mL Rnase A (Thermo Fisher Scientific). After 1 h incubation, the cellular DNA was then stained with PI (50 μg/mL) for 20 min while protected from the light at 4° C. The relative DNA concentration of the stained cells was measured using a BD LSRII flow cytometer (Becton Dickinson, San Jose, Calif.).

Data set [3] relates to HDFs. The experiment in a line: PicoGreen total DNA quantification (proliferation in 3D culture). In kind it is cell-based, human. As to conditions: HDFs in gel, over the course of 10 days. As to the method: HDF encapsulated hydrogel scaffold samples were prepared and cultured using the same method as the in vitro 3D cell culture with 10 K cells per 50 μl hydrogel per sample. At each time point, after removing the medium, the samples were cooled on ice, and the cells were lysed by PBS-3% Triton-X. The Quant-iT PicoGreen dsDNA assay kit (Life Technologies) was employed according to the manufacturer's protocol, and the results were read in triplicates. Samples of […] were accessed using microplate reader (Tecan, Männedorf, Switzerland); fluorescence was quantified at 520 nm with excitation at 480 nm.

Data set [4] concerns integrin α3 and α6 on HDFs. The data set is described as follows: Proliferation inhibition with anti-integrin α3 and α6 antibodies. Format: cell-based, human. As to conditions: 5 days. As to the method: The mouse monoclonal antibody against human integrin α6 and α3 were purchased from Santa Cruz (Dallas, T A), and dialyzed with 10,000 MWCO Dialysis Cassettes dialysis cassette (Thermo Scientific) overnight to remove the sodium azide. […] Before cell encapsulation, HDFs were pre-incubated in suspension with corresponding anti-integrin antibodies (final concentration 10 μg/mL) for 15 min at 37° C. Then the pre-treated HDFs (1×10^4 cells per 50 μL scaffold per well) were incubated on the ultra-low attachment plate (Coring, Coring, NY) for 5 days at 37° C. in 5% CO2. Anti-integrin antibodies treatments were also added in the culture media for the corresponding groups (10 μg/mL), and the media was changed every other day. After 5 days of incubation, total DNA content within each scaffold was quantified using PicoGreen DNA quantification assay as mentioned above.

Data set [5] relates to db/db mice full-thickness wound. The data set is described as follows: Diabetic splinted excisional wound healing model, wound closure. Format: in vivo, mouse. As to the method:
To prevent skin contraction, paired pre-sterilized doughnut-shaped splints (10-mm inner diameter; 12-mm outer diameter) made from 0.5-mm-thick acrylate tape (3M, St. Paul, Minn.) were attached to the left and right dorsal sides of the mouse with Vetbond (3M) and interrupted 6-0 nylon sutures (Ethicon, Cincinnati, Ohio) after depilation. A 6-mm circular, full-thickness wound was made in the center of each splinted area. 40 μl of gel solution was applied to each wound bed. A transparent sterile occlusive dressing TegaDerm™ (3M) was then placed over the wound and the splint. Digital images of the wound area were taken every other day, and quantified in ImageJ by normalizing the wound area to the known splint area at each time point. Hydrogel dressings were reapplied on day 6, after gently rinsing the wound with cold 1× PBS.

Another data set has as its system db/db mice wound tissue. The data set is described as follows: Histology and immunofluorescence of regenerated wound tissue. In kind it is in vivo, mouse. The source says:
Upon full closure of the wounds (for the first batch study) or 10 days after the initial wound surgery (for the second batch study), animals were euthanized and the regenerated wound tissue was excised with a 10-mm biopsy punch (Acuderm, Fort Lauderdale, Fla.), fixed using 4% paraformaldehyde and embedded by paraffin. The tissues were then sectioned and processed for hematoxylin and eosin (H&E) staining to measure granulation tissue thickness, and the epithelial gap histomorphometrically. The granulation tissue thickness and epithelial gap was measured based on 5 different H&E images for each group by blinded observer using ImageJ. The tissue sections were also stained for Keratin 10, Integrin α3 or F4/80 (Santa Cruz, Dallas, Tex.) The secondary antibodies used were either conjugated to AlexaFluor488 or AlexaFluor555 (Invitrogen, Carlsbad, Calif.).

For “IP: inactive form of A5G81 (WHRVSVC), negative control (WHRVSVC-NH2) [reference compound]”, the “cell adhesion on SAMs presenting the peptide” value in data set [1] is listed as “very low cell adhesive properties”.

As for “A5G81: 12 amino acid laminin α5 globular domain derived peptide AGQWHRVSVRWG (listed as Mus musculus)”, in data set [1], the “cell adhesion on SAMs presenting the peptide” value is on record as “excellent cell adhesion properties”.

With “P-A5G81: PPCN hydrogel conjugated via BMPH linker to cysteine-terminated A5G81 peptide (AGQWHRVSVRWGC([BMPH-PPCN hydrogel])-NH2; reading uncertain; also: conjugated to PPCN hydrogel via BMPH linker at C-terminal Cys)”, the “cell spreading in 3D culture” value with Human dermal fibroblasts (day 5) is on record as “began to spread”. Also, in the data set with Human dermal fibroblasts (day 10), the “cell spreading in 3D culture” value is given as “fully elongated with typical fibroblast morphology”. Further, the S phase percentage with HDFs [2] (day 5) was determined as 21%. The same substance registered a S phase percentage in the data set on HDFs [2] (day 10) of 26.6%. For the same substance, the “cell proliferation rate (total DNA content)” value in the data set with HDFs [3] was “higher cell proliferation rate”. In addition, the “cell proliferation (total DNA) under complete blocking” value in data set [4] (both anti-α3 and anti-α6, 10 μg/mL) was “close to the unfunctionalized PPCN scaffold”. For the same substance, in data set [4] (only anti-α3 or anti-α6, 10 μg/mL), the “cell proliferation (total DNA) under partial blocking” value was “partial decrease of the cell proliferation”. The “time to complete wound closure” value in data set [5] is 21 days. Further, the percent wound closure in data set [5] (day 10) is reported as 45.3%. In addition, the “complete closure faster than P-RGD” value in data set [5] (versus P-RGD) was determined as 3 days. The “complete closure faster than PPCN and P-IP” value in data set [5] (versus PPCN and P-IP) was “one week faster”. Moreover, the granulation tissue thickness entry with db/db mice wound tissue (by the time of closure, compared with PPCN, P-RGD and P-IP groups) is reported as “significantly thicker”. Besides, in the data set on db/db mice wound tissue (db/db mice, day 10, P-A5G81 side vs P-IP side), the “wound histology at day 10 within the same animal” value is “thick granulation tissue was already prominent”. In addition, the “epidermal gap relative to that of the P-IP control wounds” value in the data set on db/db mice wound tissue (db/db mice, day 10, after two applications) amounted to 25%. In addition, in the data set with db/db mice wound tissue (db/db mice, day 30), the epithelial gap is reported as 340 μm, the “integrin α3 positive cells in wound tissue” value was “significant amount of α3 positive cells” and the “wound opening relative to the initial wound size” value is listed as “around 5%”. Moreover, the “macrophage marker F4/80 staining” value in the data set with db/db mice wound tissue (db/db mice, day 30, foreign body response) was “minimum amount of macrophages”. The “Keratin 10 staining, epithelium structure” value in the data set on db/db mice wound tissue (db/db mice, day 30, wound centre) was “multi-layer epithelium structure”.
